Converted amounts (≈) assume the structure as drawn. The source made the active and inactive calls. The calls are words filed in the database; no cut-off is given here.
What was measured:
Pseudomonas aeruginosa [1] = assay: Antibacterial activity against Pseudomonas aeruginosa MTCC 424 assessed as growth inhibition at 750 ug/mL after 48 hr by agar diffusion method; type: functional; conditions: MTCC 424, 48 h, read-out: DIZ
Bacillus pumilus [2] = assay: Antibacterial activity against Bacillus pumilus MTCC 1456 assessed as growth inhibition at 1000 ug/mL after 48 hr by agar diffusion method; type: functional; conditions: MTCC 1456, 48 h, read-out: DIZ
Pseudomonas aeruginosa [3] = assay: Antibacterial activity against Pseudomonas aeruginosa MTCC 424 assessed as growth inhibition at 1000 ug/mL after 48 hr by agar diffusion method; type: functional; conditions: MTCC 424, 48 h, read-out: DIZ
Aspergillus niger [4] = assay: Antifungal activity against Aspergillus niger MTCC 2546 assessed as growth inhibition after 24 hr by tube dilution method; type: functional; conditions: MTCC 2546, 24 h
Aspergillus niger [5] = assay: Antifungal activity against Aspergillus niger MTCC 2546 assessed as growth inhibition at 500 ug/mL after 48 hr by agar diffusion method; type: functional; conditions: MTCC 2546, 48 h, read-out: DIZ
Pseudomonas fluorescens [6] = assay: Antibacterial activity against Pseudomonas fluorescens MTCC 2421 assessed as growth inhibition at 250 ug/mL after 48 hr by agar diffusion method; type: functional; conditions: MTCC 2421, 48 h, read-out: DIZ
Staphylococcus aureus [7] = assay: Antibacterial activity against Staphylococcus aureus MTCC 1430 assessed as growth inhibition at 250 ug/mL after 48 hr by agar diffusion method; type: functional; conditions: for zone of inhibition at 250 µg/mL: MTCC 1430, 48 h, read-out: DIZ
Pseudomonas aeruginosa [8] = assay: Antibacterial activity against Pseudomonas aeruginosa MTCC 424 assessed as growth inhibition after 24 hr by tube dilution method; type: functional; conditions: MTCC 424, 24 h
Micrococcus luteus = assay: Antibacterial activity against Micrococcus luteus MTCC 1538 assessed as growth inhibition after 24 hr by tube dilution method; type: functional; conditions: MTCC 1538, 24 h
Escherichia coli [9] = assay: Antibacterial activity against Escherichia coli MTCC 1573 assessed as growth inhibition at 500 ug/mL after 48 hr by agar diffusion method; type: functional; conditions: MTCC 1573, 48 h, read-out: DIZ
Pseudomonas fluorescens [10] = assay: Antibacterial activity against Pseudomonas fluorescens MTCC 2421 assessed as growth inhibition at 100 ug/mL after 48 hr by agar diffusion method; type: functional; conditions: for zone of inhibition at 100 µg/mL: MTCC 2421, 48 h, read-out: DIZ
Aspergillus niger [11] = assay: Antifungal activity against Aspergillus niger MTCC 2546 assessed as growth inhibition at 750 ug/mL after 48 hr by agar diffusion method; type: functional; conditions: MTCC 2546, 48 h, read-out: DIZ
Staphylococcus aureus [12] = assay: Antibacterial activity against Staphylococcus aureus MTCC 1430 assessed as growth inhibition after 24 hr by tube dilution method; type: functional; conditions: MTCC 1430, 24 h
Bacillus pumilus [13] = assay: Antibacterial activity against Bacillus pumilus MTCC 1456 assessed as growth inhibition at 100 ug/mL after 48 hr by agar diffusion method; type: functional; conditions: MTCC 1456, 48 h, read-out: DIZ
Bacillus subtilis [14] = assay: Antibacterial activity against Bacillus subtilis MTCC 441 assessed as growth inhibition at 100 ug/mL after 48 hr by agar diffusion method; type: functional
Aspergillus niger [15] = assay: Antifungal activity against Aspergillus niger MTCC 2546 assessed as growth inhibition at 100 ug/mL after 48 hr by agar diffusion method; type: functional, organism-based
Staphylococcus aureus [16] = assay: Antibacterial activity against Staphylococcus aureus MTCC 1430 assessed as growth inhibition at 1250 ug/mL after 48 hr by agar diffusion method; type: functional; conditions: MTCC 1430, 48 h, read-out: DIZ
Pseudomonas aeruginosa [17] = assay: Antibacterial activity against Pseudomonas aeruginosa MTCC 424 assessed as growth inhibition at 1250 ug/mL after 48 hr by agar diffusion method; type: functional; conditions: MTCC 424, 48 h, read-out: DIZ
Bacillus subtilis [18] = assay: Antibacterial activity against Bacillus subtilis MTCC 441 assessed as growth inhibition at 250 ug/mL after 48 hr by agar diffusion method; type: functional; conditions: MTCC 441, 48 h, read-out: DIZ
Penicillium chrysogenum = assay: Antifungal activity against Penicillium chrysogenum MTCC 161 assessed as growth inhibition at 1250 ug/mL after 48 hr by agar diffusion method; type: functional; conditions: MTCC 161, 48 h, read-out: DIZ
Escherichia coli [19] = assay: Antibacterial activity against Escherichia coli MTCC 1573 assessed as growth inhibition at 1000 ug/mL after 48 hr by agar diffusion method; type: functional; conditions: MTCC 1573, 48 h, read-out: DIZ
Bacillus pumilus [20] = assay: Antibacterial activity against Bacillus pumilus MTCC 1456 assessed as growth inhibition at 750 ug/mL after 48 hr by agar diffusion method; type: functional; conditions: MTCC 1456, 48 h, read-out: DIZ
Escherichia coli [21] = assay: Antibacterial activity against Escherichia coli MTCC 1573 assessed as growth inhibition at 750 ug/mL after 48 hr by agar diffusion method; type: functional; conditions: MTCC 1573, 48 h, read-out: DIZ
Escherichia coli [22] = assay: Antibacterial activity against Escherichia coli MTCC 1573 assessed as growth inhibition at 1250 ug/mL after 48 hr by agar diffusion method; type: functional; conditions: MTCC 1573, 48 h, read-out: DIZ

SMILES | zone of inhibition at 750 µg/mL (Pseudomonas aeruginosa [1]) | zone of inhibition at 1000 µg/mL (Bacillus pumilus [2]) | zone of inhibition at 1000 µg/mL (Pseudomonas aeruginosa [3]) | MIC (Aspergillus niger [4]) | zone of inhibition at 500 µg/mL (Aspergillus niger [5]) | zone of inhibition at 250 µg/mL (Pseudomonas fluorescens [6]) | MIC (Pseudomonas aeruginosa [8]) | MIC (Micrococcus luteus) | zone of inhibition at 500 µg/mL (Escherichia coli [9]) | zone of inhibition at 750 µg/mL (Aspergillus niger [11]) | MIC (Staphylococcus aureus [12]) | zone of inhibition at 100 µg/mL (Bacillus pumilus [13]) | growth inhibition (GI) (Aspergillus niger [15]) | zone of inhibition at 1250 µg/mL (Staphylococcus aureus [16]) | zone of inhibition at 1250 µg/mL (Pseudomonas aeruginosa [17]) | zone of inhibition at 250 µg/mL (Bacillus subtilis [18]) | zone of inhibition at 1250 µg/mL (Penicillium chrysogenum) | zone of inhibition at 1000 µg/mL (Escherichia coli [19]) | zone of inhibition at 750 µg/mL (Bacillus pumilus [20]) | zone of inhibition at 750 µg/mL (Escherichia coli [21]) | other results
CC1SCC(=O)N1c1nnc2c3cc(Cl)ccc3nc-2s1 (configuration not stated) | 17 mm | 15 mm | 18 mm | 250 µg/mL (≈ 742 µM) | 10 mm | 7 mm | 50 µg/mL (≈ 148 µM) | 150 µg/mL (≈ 445 µM) | 14 mm | 13 mm | 150 µg/mL (≈ 445 µM) | 8 mm | inactive | 19 mm | 20 mm | 10 mm | 20 mm | 19 mm | 13 mm | 17 mm | zone of inhibition at 250 µg/mL (Staphylococcus aureus [7]): 8 mm; growth inhibition (GI) (Pseudomonas fluorescens [10]): inactive; zone of inhibition at 100 µg/mL (Bacillus subtilis [14]; MTCC 441, 48 h, read-out: DIZ): 8 mm; zone of inhibition at 1250 µg/mL (Escherichia coli [22]): 21 mm
O=C1CSC(c2cccc3ccccc23)N1c1nnc2c3cc(Cl)ccc3nc-2s1 (configuration not stated) | 13 mm | 17 mm | 15 mm | 150 µg/mL (≈ 334 µM) | 11 mm | 11 mm | 40 µg/mL (≈ 89.1 µM) | 150 µg/mL (≈ 334 µM) | 13 mm | 13 mm | 150 µg/mL (≈ 334 µM) | 8 mm | inactive | 15 mm | 18 mm | 7 mm | 18 mm | 17 mm | 15 mm | 15 mm | growth inhibition (GI) (Staphylococcus aureus [7]): inactive; zone of inhibition at 100 µg/mL (Pseudomonas fluorescens [10]): 8 mm; growth inhibition (GI) (Bacillus subtilis [14]): inactive; zone of inhibition at 1250 µg/mL (Escherichia coli [22]): 20 mm
O=C1CSC(c2ccccn2)N1c1nnc2c3cc(Cl)ccc3nc-2s1 (configuration not stated) | 15 mm | 20 mm | 18 mm | 200 µg/mL (≈ 500 µM) | 12 mm | 8 mm | 30 µg/mL (≈ 75 µM) | 250 µg/mL (≈ 625 µM) | 12 mm | 15 mm | 250 µg/mL (≈ 625 µM) | 10 mm | inactive | 17 mm | 20 mm | 7 mm | 20 mm | 20 mm | 18 mm | 15 mm | zone of inhibition at 250 µg/mL (Staphylococcus aureus [7]): 7 mm; zone of inhibition at 100 µg/mL (Pseudomonas fluorescens [10]): 7 mm; growth inhibition (GI) (Bacillus subtilis [14]): inactive; zone of inhibition at 1250 µg/mL (Escherichia coli [22]): 23 mm

— ChEMBL document CHEMBL3046001, “4-Thiazolidinone and 1-thia-3,4,9-triaza fluorene conjugates: synthesis, characterization and antimicrobial screening” (2013)
